Values of other authors, collected in patent US20220323396A1, “COMPOSITIONS AND METHODS FOR TREATING VIRAL INFECTION USING ANTIVIRAL COCKTAILS” (priority 2020, published 2022).

Assays:
thrombin = thrombin (Homo sapiens, UniProt P00734); settings: values ranging; potent, specific and reversible inhibition
human tryptase = human tryptase (Homo sapiens, UniProt Q15661)
Chain of human tryptase (Q15661 31-275): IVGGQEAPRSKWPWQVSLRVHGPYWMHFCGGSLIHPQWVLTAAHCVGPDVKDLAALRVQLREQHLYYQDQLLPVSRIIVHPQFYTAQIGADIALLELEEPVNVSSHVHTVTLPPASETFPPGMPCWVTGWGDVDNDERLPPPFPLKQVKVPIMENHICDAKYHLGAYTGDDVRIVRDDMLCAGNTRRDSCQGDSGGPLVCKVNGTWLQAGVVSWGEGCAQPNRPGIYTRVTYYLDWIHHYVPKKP

IC50 (thrombin): 330 to 1900 nM
IC50 (human tryptase): 0.016 nM
SMILES: N=C(N)c1ccc2cc(OC(=O)c3ccc(N=C(N)N)cc3)ccc2c1 [Nafamostat]
